Experimental data from patent US9315503B2, “Kinase inhibitors” (CHIESI FARMACEUTICI S.p.A., priority 2011, dated 2016).
Counter-ions that a name gives are not always drawn.

Experiments:
[1] = system: LPS-stimulated TNFα release from PBMCs; test: LPS-stimulated PBMC TNFα release assay; type: cell-based; conditions: inhibition of TNFα release, human PBMCs, LPS 10 ng/ml, 18 h, ELISA, read-out: p38α inhibition (IC50 values)
Protocol: LPS-Stimulated PBMC TNFα Release Assay.
Peripheral Blood Mononuclear Cells (PBMCs) were isolated from healthy human volunteer blood using a standard density gradient centrifugation technique. Citrated blood was placed onto Histopaque™ and centrifuged. The PBMCs were removed from the density gradient interface and washed in phosphate buffered saline (PBS). The PBMCs were suspended in RPMI 1640 medium (without serum), dispensed into a 96-well plate and incubated at 37° C. for 3 h in a humidified incubator. After incubation, the medium was replaced (with medium containing 1% foetal bovine serum) and the plate incubated at 37° C., for 1 h, in the presence of test compound or the appropriate vehicle. LPS (10 ng/ml), or an appropriate vehicle control, was then added to the cells and the plate returned to the incubator for 18 h. Cell-free supernatants were removed and assayed for TNFα levels using an ELISA kit from R&D Systems.
A dose response curve to each test compound was performed and the effect of compound in each experiment was expressed as a percentage inhibition of the control TNFα release. Dose response curves were plotted and compound potency (IC50) was determined. Compounds were tested in at least three separate experiments.

[2] = biological target: T1, p38alpha (Homo sapiens, UniProt Q16539); test: P38Alpha enzyme inhibition assay (Alphascreen kinase activity assay); type: biochemical; conditions: 100 pM p38alpha, 250 μM ATP, 2 hours pre-incubation at 25° C., read-out: p38α inhibition (IC50 values)
T1 construct: purchased Invitrogen PV3304
T1 sequence (Q16539 whole entry): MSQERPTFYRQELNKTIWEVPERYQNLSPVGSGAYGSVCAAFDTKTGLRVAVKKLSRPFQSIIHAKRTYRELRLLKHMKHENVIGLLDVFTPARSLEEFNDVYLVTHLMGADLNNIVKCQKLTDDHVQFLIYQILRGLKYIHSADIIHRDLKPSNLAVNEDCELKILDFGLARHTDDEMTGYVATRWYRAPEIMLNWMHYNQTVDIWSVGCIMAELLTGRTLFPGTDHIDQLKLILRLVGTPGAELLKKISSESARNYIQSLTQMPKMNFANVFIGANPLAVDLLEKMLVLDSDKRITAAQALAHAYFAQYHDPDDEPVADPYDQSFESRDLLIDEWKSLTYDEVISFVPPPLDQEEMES
Protocol: P38Alpha Enzyme Inhibition Assay.
The inhibitory activity of compounds was determined using an Alphascreen® (Perkin Elmer) based kinase activity assay. Kinase reactions consisted of 25 mM HEPES pH 7.5, 10 mM MgCl2, 100 μM Na3VO4, 2 mM DTT, 0.05 mg/ml Tween 20, 100 pM p38alpha (Invitrogen, PV3304), 1% DMSO and 0.3 μg/ml ATF-2 fusion protein (New England Biolabs, 9224). Compounds were incubated under these conditions for 2 hours, at 25° C., prior to the initiation of the kinase activity by the addition of the 250 μM ATP. Reaction volumes were 20 uL. After 1 hr at 25° C. reactions were stopped by the adding 10 uL of 25 mM HEPES pH 7.5 containing 62.5 mM EDTA, 0.05% Triton X-100, 10% BSA and 0.83 ng/uL anti-phospho-ATF2 antibody (Abeam, ab28812). Detection was performed by measuring luminescence following the addition of Alphascreen Donor beads (Perkin Elmer 6765300) and Protein A Alphascreen Acceptor beads (Perkin Elmer 6760137), both at a final concentration of 20 ug/ml. IC50 values were determined from concentration-response curves.

Compound | IC50 [1] [nM] | IC50 [2] [nM]
Cc1ccc(-n2nc(C(C)(C)C)cc2NC(=O)N[C@H]2CC[C@@H](Oc3ccc4nnc(CCN5CCCC5)n4c3)c3ccccc32)cc1 [Example 1, 1-(5-tert-Butyl-2-p-tolyl-2H-pyrazol-3-yl)-3-{(1S,4R)-4-[3-(2-pyrrolidin-1-yl-ethyl)-[1,2,4]triazolo[4,3-a]pyridin-6-yloxy]-1,2,3,4-tetrahydro-naphthalen-1-yl}-urea] | 10 to 100 | < 10
Cc1ccc(-n2nc(C(C)(C)C)cc2NC(=O)N[C@H]2CC[C@@H](Oc3ccc4nnc(CCN5CCN(C)CC5)n4c3)c3ccccc32)cc1 [Example 2, 1-(5-tert-Butyl-2-p-tolyl-2H-pyrazol-3-yl)-3-((1S,4R)-4-{3-[2-(4-methyl-piperazin-1-yl)-ethyl]-[1,2,4]triazolo[4,3-a]pyridin-6-yloxy}-1,2,3,4-tetrahydro-naphthalen-1-yl)-urea formate salt] | 10 to 100 | < 10
Cc1ccc(-n2nc(C(C)(C)C)cc2NC(=O)N[C@H]2CC[C@@H](Oc3ccc4nnc(N5CCCCC5)n4c3)c3ccccc32)cc1 [Example 3] | < 10 | < 10
Cc1ccc(-n2nc(C(C)(C)C)cc2NC(=O)N[C@H]2CC[C@@H](Oc3ccc4nnc(CN5CCNCC5)n4c3)c3ccccc32)cc1 [Example 7, 1-(5-tert-Butyl-2-p-tolyl-2H-pyrazol-3-yl)-3-[(1S,4R)-4-(3-piperazin-1-ylmethyl-[1,2,4]triazolo[4,3-a]pyridin-6-yloxy)-1,2,3,4-tetrahydro-naphthalen-1-yl]-urea] | 100 to 1000 | < 10
Cc1ccc(-n2nc(C(C)(C)C)cc2NC(=O)N[C@H]2CC[C@@H](Oc3ccc4nnc(CN5CCN(C)CC5)n4c3)c3ccccc32)cc1 [Example 14, 1-(5-tert-Butyl-2-p-tolyl-2H-pyrazol-3-yl)-3-{(1S,4R)-4-[3-(4-methyl-piperazin-1-ylmethyl)-[1,2,4]triazolo[4,3-a]pyridin-6-yloxy]-1,2,3,4-tetrahydro-naphthalen-1-yl}-urea formate salt] | 10 to 100 | 
Cc1ccc(-n2nc(C(C)(C)C)cc2NC(=O)N[C@H]2CC[C@@H](Oc3ccc4nnc(CN5CCOCC5)n4c3)c3ccccc32)cc1 [Example 15, 1-(5-tert-Butyl-2-p-tolyl-2H-pyrazol-3-yl)-3-[(1S,4R)-4-(3-morpholin-4-ylmethyl-[1,2,4]triazolo[4,3-a]pyridin-6-yloxy)-1,2,3,4-tetrahydro-naphthalen-1-yl]-urea formate salt] | < 10 | 
Cc1ccc(-n2nc(C(C)(C)C)cc2NC(=O)N[C@H]2CC[C@@H](Oc3ccc4nnc(CN5CCCC5)n4c3)c3ccccc32)cc1 [Example 16, 1-(5-tert-Butyl-2-p-tolyl-2H-pyrazol-3-yl)-3-[(1S,4R)-4-(3-pyrrolidin-1-ylmethyl-[1,2,4]triazolo[4,3-a]pyridin-6-yloxy)-1,2,3,4-tetrahydro-naphthalen-1-yl]-urea] | < 10 | 
C[C@@H]1CCC[C@H](C)N1c1nnc2ccc(O[C@@H]3CC[C@H](NC(=O)NC4CC4)c4ccccc43)cn12 [Example 117, 1-Cyclopropyl-3-{(1S,4R)-4-[3-((2S,6R)-2,6-dimethyl-piperidin-1-yl)-[1,2,4]triazolo[4,3-a]pyridin-6-yloxy]-1,2,3,4-tetrahydro-naphthalen-1-yl}-urea formate salt] | < 10 | 
C[C@H]1CCCCN1c1nnc2ccc(O[C@@H]3CC[C@H](NC(=O)Nc4cc(C(C)(C)C)nn4-c4cccc(CN5CCCC5)c4)c4ccccc43)cn12 [Example 171, 1-[5-tert-Butyl-2-(3-pyrrolidin-1-ylmethyl-phenyl)-2H-pyrazol-3-yl]-3-{(1S,4R)-4-[3-((S)-2-methyl-piperidin-1-yl)-[1,2,4]triazolo[4,3-a]pyridin-6-yloxy]-1,2,3,4-tetrahydro-naphthalen-1-yl}-urea formate salt] |  | < 10
C[C@H]1CCCCN1c1nnc2ccc(O[C@@H]3CC[C@H](NC(=O)Nc4cc(C(C)(C)C)nn4-c4ccc(CN5CCOCC5)cc4)c4ccccc43)cn12 [Example 176, 1-[5-tert-Butyl-2-(4-morpholin-4-ylmethyl-phenyl)-2H-pyrazol-3-yl]-3-{(1S,4R)-4-[3-((S)-2-methyl-piperidin-1-yl)-[1,2,4]triazolo[4,3-a]pyridin-6-yloxy]-1,2,3,4-tetrahydro-naphthalen-1-yl}-urea] |  | < 10
C[C@H]1CCCCN1c1nnc2ccc(O[C@@H]3CC[C@H](NC(=O)Nc4cc(C(C)(C)C)nn4-c4ccc(CN5CCN(C)CC5)cc4)c4ccccc43)cn12 [Example 178, 1-{5-tert-Butyl-2-[4-(4-methyl-piperazin-1-ylmethyl)-phenyl]-2H-pyrazol-3-yl}-3-{(1S,4R)-4-[3-((S)-2-methyl-piperidin-1-yl)-[1,2,4]triazolo[4,3-a]pyridin-6-yloxy]-1,2,3,4-tetrahydro-naphthalen-1-yl}-urea partial formate salt] |  | < 10
C[C@H]1CCCCN1c1nnc2ccc(O[C@@H]3CC[C@H](NC(=O)Nc4cc(C(C)(C)C)nn4-c4ccc(CN5CCCC5)cc4)c4ccccc43)cn12 [Example 181, 1-[5-tert-Butyl-2-(4-pyrrolidin-1-ylmethyl-phenyl)-2H-pyrazol-3-yl]-3-{(1S,4R)-4-[3-((S)-2-methyl-piperidin-1-yl)-[1,2,4]triazolo[4,3-a]pyridin-6-yloxy]-1,2,3,4-tetrahydro-naphthalen-1-yl}-urea formate salt] |  | < 10
C[C@H]1CCCCN1c1nnc2ccc(O[C@@H]3CC[C@H](NC(=O)Nc4cc(C(C)(C)C)nn4-c4ccc(CN5CCCCC5)cc4)c4ccccc43)cn12 [Example 182, 1-[5-tert-Butyl-2-(4-piperidin-1-ylmethyl-phenyl)-2H-pyrazol-3-yl]-3-{(1S,4R)-4-[3-((S)-2-methyl-piperidin-1-yl)-[1,2,4]triazolo[4,3-a]pyridin-6-yloxy]-1,2,3,4-tetrahydro-naphthalen-1-yl}-urea formate salt] |  | < 10
C[C@H]1CCCCN1c1nnc2ccc(O[C@@H]3CC[C@H](NC(=O)Nc4cc(C(C)(C)C)nn4-c4ccc(CN5CCC(F)CC5)cc4)c4ccccc43)cn12 [Example 183, 1-{5-tert-Butyl-2-[4-(4-fluoro-piperidin-1-ylmethyl)-phenyl]-2H-pyrazol-3-yl}-3-{(1S,4R)-4-[3-((S)-2-methyl-piperidin-1-yl)-[1,2,4]triazolo[4,3-a]pyridin-6-yloxy]-1,2,3,4-tetrahydro-naphthalen-1-yl}-urea formate salt] |  | < 10
CCN(C)Cc1ccc(-n2nc(C(C)(C)C)cc2NC(=O)N[C@H]2CC[C@@H](Oc3ccc4nnc(N5CCCC[C@@H]5C)n4c3)c3ccccc32)cc1 [Example 184, 1-(5-tert-Butyl-2-{4-[(ethyl-methyl-amino)-methyl]-phenyl}-2H-pyrazol-3-yl)-3-{(1S,4R)-4-[3-((S)-2-methyl-piperidin-1-yl)-[1,2,4]triazolo[4,3-a]pyridin-6-yloxy]-1,2,3,4-tetrahydro-naphthalen-1-yl}-urea formate salt] |  | < 10
COCCN(C)Cc1ccc(-n2nc(C(C)(C)C)cc2NC(=O)N[C@H]2CC[C@@H](Oc3ccc4nnc(N5CCCC[C@@H]5C)n4c3)c3ccccc32)cc1 [Example 185, 1-[5-tert-Butyl-2-(4-{[(2-methoxy-ethyl)-methyl-amino]-methyl}-phenyl)-2H-pyrazol-3-yl]-3-{(1S,4R)-4-[3-((S)-2-methyl-piperidin-1-yl)-[1,2,4]triazolo[4,3-a]pyridin-6-yloxy]-1,2,3,4-tetrahydro-naphthalen-1-yl}-urea formate salt] |  | < 10
